Patent US12157730B2, “Heteroaryl derivative, method for producing same, and pharmaceutical composition comprising same as effective component” (VORONOI INC., priority 2019, dated 2024)

Target: T1, Ba/F3 cell EGFR Exon20 ins NPH (Homo sapiens, UniProt P00533, INS773NPH)
T1 construct: expressed in transfected cells; host or cells: Ba/F3
Assay: Ba/F3 cell proliferation suppression, EGFR Exon20 ins NPH
Assay type: cell-based
Conditions: GI50 class; Ba/F3 cell line with NPH inserted at Exon20 of EGFR; 72 hours
Protocol: The following experiment was carried out to evaluate the suppression activity of the compounds according to the present invention against proliferation of Ba/F3 and lung cancer cells which express EGFR mutations.
Of the cancer cell lines expressing the EGFR gene, A549 was cultured after adding 10% FBS (HyClone) to DMEM (Invitrogen), and RPMI-1640 (Invitrogen) with 10% FBS was used for the other cancer cells. For the Ba/F3 cells, RPMI-1640 with 10% FBS and 5 ng/ml IL-3 (R&D Systems) was used. The transduced Ba/F3 cells were cultured by adding 1 ug/ml puromycin (Invitrogen) to the same medium.
24 hours before treatment with the compounds, 3000 to 5000 cells were distributed into each well of a white clear bottom 96 well plate (Corning). The compounds were diluted in dimethylsulfoxide (dilution ratio 3:1; 12 concentrations total) and injected 0.5 ul each for a final concentration of 0.3 nM to 50 um. As for measurement of live cells, 72 hours after treatment with the compounds, a CellTiter-Glo luminescent cell-viability reagent (Promega) was used to store the cells at room temperature for 10 minutes, followed by measurement of luminescence using a reader (SynergyNeo, Biotek). Each test was repeated three times.
The result was calculated as a cell growth ratio (%) compared to a control. The program GraphPad Prism version 5.0 was used to draw the graphs and calculate the GI50 values.

SMILES | Ba/F3 (NPH) Activity
C=CC(=O)Nc1cc(Nc2cc(N3OCC[C@@H]3c3cccc(Cl)c3F)ncn2)c(OC)cc1N1CCC(N2CC[C@@H](N(C)C)C2)CC1 [compound 914, N-(5-((6-((R)-3-(3-chloro-2-fluorophenyl)isoxazolidine-2-yl)pyrimidine-4-yl)amino)-2-(4-((R)-3-(dimethylamino)pyrolidine-1-yl)piperidine-1-yl)-4-methoxyphenyl) acrylamide] | A (GI50 < 50 nM)
C=CC(=O)Nc1cc(Nc2cc(N3OCC[C@@H]3c3cccc(Cl)c3C)ncn2)c(OC)cc1N1CCC(N2CCC(F)(F)CC2)CC1 [compound 581, N-(5-((6-((R)-3-(3-chloro-2-methylphenyl)isoxazolidine-2-yl)pyrimidine-4-yl)amino)-2-(4,4-difluoro-[1,4'-bipiperidine]-1'-yl)-4-methoxyphenyl) acrylamide] | A (GI50 < 50 nM)
C=CC(=O)Nc1cc(Nc2cc(N3OCC[C@@H]3c3ccc(Cl)cc3F)ncn2)c(OC)cc1N1CCC(N2CCN(C(C)C)CC2)CC1 [compound 408, N-(5-((6-((R)-3-(4-chloro-2-fluorophenyl)isoxazolidine-2-yl)pyrimidine-4-yl)amino)-2-(4-(4-isopropylpiperazine-1-yl)piperidine-1-yl)-4-methoxyphenyl) acrylamide] | A (GI50 < 50 nM)
C=CC(=O)Nc1cc(Nc2cc(N3OCC[C@@H]3c3ccc(Cl)c(Cl)c3F)ncn2)c(OC)cc1N1CC[C@H](N2CCOCC2)C1 [Example 295, N-(5-((6-((R)-3-(3,4-dichloro-2-fluorophenyl)isoxazolidine-2-yl)pyrimidine-4-yl)amino)-4-methoxy-2-((S)-3-morpholinopyrolidine-1-yl)phenyl)acrylamide] | C (500 nM ≤ GI50 < 5000 nM)
C=CC(=O)Nc1cc(Nc2cc(N3OCC[C@@H]3c3ccc(F)c(F)c3)ncn2)c(OC)cc1N1CC[C@H](N2CCOCC2)C1 [compound 579, N-(5-((6-((R)-3-(3,4-difluorophenyl)isoxazolidine-2-yl)pyrimidine-4-yl)amino)-4-methoxy-2-((S)-3-morpholinopyrolidine-1-yl)phenyl)acrylamide] | C (500 nM ≤ GI50 < 5000 nM)
C=CC(=O)Nc1cc(Nc2cc(N3OCC[C@@H]3c3ccc4ccccc4c3)ncn2)c(OC)cc1N1CCO[C@H](C)C1 [compound 663, N-(4-methoxy-2-((R)-2-methylmorpholino)-5-((6-((R)-3-(naphthalene-2-yl)isoxazolidine-2-yl)pyrimidine-4-yl)amino)phenyl)acrylamide] | B (50 nM ≤ GI50 < 500 nM)
C=CC(=O)Nc1cc(Nc2cc(N3OCC[C@@H]3c3cccc(F)c3F)ncn2)c(OC)cc1N1CCO[C@@H](C)C1 [compound 888, N-(5-((6-((R)-3-(2,3-difluorophenyl)isoxazolidine-2-yl)pyrimidine-4-yl)amino)-4-methoxy-2-((S)-2-methylmorpholino)phenyl)acrylamide] | A (GI50 < 50 nM)
C=CC(=O)Nc1cc(Nc2cc(N3OCC[C@@H]3c3cccc(OC)c3)ncn2)c(OC)cc1N(C)CCN(C)C [Example 24, N-(2-((2-(dimethylamino)ethyl) (methyl)amino)-4-methoxy-5-((6-((R)-3-(3-methoxyphenyl)isoxazolidine-2-yl)pyrimidine-4-yl)amino)phenyl) acrylamide] | A (GI50 < 50 nM)
C=CC(=O)Nc1cc(Nc2cc(N3OCC[C@@H]3c3cccc(Cl)c3Cl)ncn2)c(OC)cc1N1CCC(N2C[C@@H]3C[C@H]2CN3CC)CC1 [compound 607, N-(5-((6-((R)-3-(2,3-dichlorophenyl)isoxazolidine-2-yl)pyrimidine-4-yl)amino)-2-(4-((1S,4S)-5-ethyl-2,5-diazabicyclo[2.2.1]heptane-2-yl)piperidine-1-yl)-4-methoxyphenyl) acrylamide] | A (GI50 < 50 nM)
C=CC(=O)Nc1cc(Nc2cc(N3OCC[C@@H]3c3cccc(F)c3F)ncn2)c(OC)cc1N1CCC(N2CCN(C(C)=O)CC2)CC1 [compound 339, N-(2-(4-(4-acetylpiperazine-1-yl)piperidine-1-yl)-5-((6-((R)-3-(2,3-difluorophenyl)isoxazolidine-2-yl)pyrimidine-4-yl)amino)-4-methoxyphenyl) acrylamide] | A (GI50 < 50 nM)
C=CC(=O)Nc1cc(Nc2cc(N3OCC[C@@H]3c3ccc(F)cc3)ncn2)c(OC)cc1N1CCC(N2CCN(C3CC3)CC2)CC1 [Example 66, N-(2-(4-(4-cyclopropylpiperazine-1-yl)piperidine-1-yl)-5-((6-((R)-3-(4-fluorophenyl)isoxazolidine-2-yl)pyrimidine-4-yl)amino)-4-methoxyphenyl) acrylamide] | A (GI50 < 50 nM)
C=CC(=O)Nc1cc(Nc2cc(N3OCC[C@@H]3Cc3cccc(Cl)c3Cl)ncn2)c(OC)cc1N1CC[C@@H](N(C)C)C1 [compound 984, N-(5-((6-((S)-3-(2,3-dichlorobenzyl)isoxazolidine-2-yl)pyrimidine-4-yl)amino)-2-((R)-3-(dimethylamino)pyrolidine-1-yl)-4-methoxyphenyl) acrylamide] | A (GI50 < 50 nM)
C=CC(=O)Nc1cc(Nc2cc(N3OCC[C@@H]3c3c(F)ccc(F)c3Cl)ncn2)c(OC)cc1N1CCC(N2CCN(C3CC3)[C@H](C)C2)CC1 [compound 935, N-(5-((6-((R)-3-(2-chloro-3,6-difluorophenyl)isoxazolidine-2-yl)pyrimidine-4-yl)amino)-2-(4-((R)-4-cyclopropyl-3-methylpiperazine-1-yl)piperidine-1-yl)-4-methoxyphenyl) acrylamide] | A (GI50 < 50 nM)
C=CC(=O)Nc1cc(Nc2cc(N3OCC[C@@H]3c3cccc(C)c3F)ncn2)c(OC)cc1N1CCC(N2CCN(C(C)=O)CC2)CC1 [compound 421, N-(2-(4-(4-acetylpiperazine-1-yl)piperidine-1-yl)-5-((6-((R)-3-(2-fluoro-3-methylphenyl)isoxazolidine-2-yl)pyrimidine-4-yl)amino)-4-methoxyphenyl) acrylamide] | A (GI50 < 50 nM)
C=CC(=O)Nc1cc(Nc2cc(N3OCC[C@@H]3c3ccc(F)cc3F)ncn2)c(OC)cc1N1CCC(N2C[C@@H]3C[C@H]2CN3CC)CC1 [compound 382, N-(5-((6-((R)-3-(2,4-difluorophenyl)isoxazolidine-2-yl)pyrimidine-4-yl)amino)-2-(4-((1S,4S)-5-ethyl-2,5-diazabicyclo [2.2.1]heptane-2-yl)piperidine-1-yl)-4-methoxyphenyl) acrylamide] | A (GI50 < 50 nM)
C=CC(=O)Nc1cc(Nc2cc(N3OCC[C@@H]3c3cccc(Cl)c3)ncn2)c(OC)cc1N1CC[C@@H](N(C)C)C1 [compound 469, N-(5-((6-((R)-3-(3-chlorophenyl)isoxazolidine-2-yl)pyrimidine-4-yl)amino)-2-((R)-3-(dimethylamino)pyrolidine-1-yl)-4-methoxyphenyl) acrylamide] | A (GI50 < 50 nM)
C=CC(=O)Nc1cc(Nc2cc(N3OCC[C@@H]3c3cccc(F)c3F)ncn2)c(OC)cc1N1CCC(N2CCN(C3CC3)[C@H](C)C2)CC1 [Example 176, N-(2-(4-((R)-4-cyclopropyl-3-methylpiperazine-1-yl)piperidine-1-yl)-5-((6-((R)-3-(2,3-difluorophenyl)isoxazolidine-2-yl)pyrimidine-4-yl)amino)-4-methoxyphenyl) acrylamide] | A (GI50 < 50 nM)
